Results: the kinase profiling compilation of Christmann-Franck et al. (2016)
“And” between values parts separate entries of the source, which are not always exact repeats. Equal entries are not always repeated. Each block holds one molecule with its values, some of them ahead of it.

Experiments:
Assay in all cases: Caliper, Mobility shift assay off-chip
[1] = target: NEK4 (human) (UniProt P51957)
[2] = target: NUAK1 (human) (UniProt O60285)
[3] = target: FRK (human) (UniProt P42685)
[4] = target: MAPK13 (human) (UniProt O15264)
Sequence of MAPK13 (human) (O15264 whole entry, looked up): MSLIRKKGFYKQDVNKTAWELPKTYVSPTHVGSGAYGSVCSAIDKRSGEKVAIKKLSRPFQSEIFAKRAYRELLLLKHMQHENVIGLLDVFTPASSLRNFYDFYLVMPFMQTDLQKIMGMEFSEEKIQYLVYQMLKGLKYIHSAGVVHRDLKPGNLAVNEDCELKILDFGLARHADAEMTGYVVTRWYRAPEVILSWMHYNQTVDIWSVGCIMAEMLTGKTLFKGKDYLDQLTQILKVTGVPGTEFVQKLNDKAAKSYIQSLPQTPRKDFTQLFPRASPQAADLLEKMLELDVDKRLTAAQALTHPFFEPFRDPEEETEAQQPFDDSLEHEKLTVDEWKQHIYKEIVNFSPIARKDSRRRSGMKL

[5] = target: FLT4 (human) (UniProt P35916)
Sequence of FLT4 (human) (P35916 whole entry, looked up): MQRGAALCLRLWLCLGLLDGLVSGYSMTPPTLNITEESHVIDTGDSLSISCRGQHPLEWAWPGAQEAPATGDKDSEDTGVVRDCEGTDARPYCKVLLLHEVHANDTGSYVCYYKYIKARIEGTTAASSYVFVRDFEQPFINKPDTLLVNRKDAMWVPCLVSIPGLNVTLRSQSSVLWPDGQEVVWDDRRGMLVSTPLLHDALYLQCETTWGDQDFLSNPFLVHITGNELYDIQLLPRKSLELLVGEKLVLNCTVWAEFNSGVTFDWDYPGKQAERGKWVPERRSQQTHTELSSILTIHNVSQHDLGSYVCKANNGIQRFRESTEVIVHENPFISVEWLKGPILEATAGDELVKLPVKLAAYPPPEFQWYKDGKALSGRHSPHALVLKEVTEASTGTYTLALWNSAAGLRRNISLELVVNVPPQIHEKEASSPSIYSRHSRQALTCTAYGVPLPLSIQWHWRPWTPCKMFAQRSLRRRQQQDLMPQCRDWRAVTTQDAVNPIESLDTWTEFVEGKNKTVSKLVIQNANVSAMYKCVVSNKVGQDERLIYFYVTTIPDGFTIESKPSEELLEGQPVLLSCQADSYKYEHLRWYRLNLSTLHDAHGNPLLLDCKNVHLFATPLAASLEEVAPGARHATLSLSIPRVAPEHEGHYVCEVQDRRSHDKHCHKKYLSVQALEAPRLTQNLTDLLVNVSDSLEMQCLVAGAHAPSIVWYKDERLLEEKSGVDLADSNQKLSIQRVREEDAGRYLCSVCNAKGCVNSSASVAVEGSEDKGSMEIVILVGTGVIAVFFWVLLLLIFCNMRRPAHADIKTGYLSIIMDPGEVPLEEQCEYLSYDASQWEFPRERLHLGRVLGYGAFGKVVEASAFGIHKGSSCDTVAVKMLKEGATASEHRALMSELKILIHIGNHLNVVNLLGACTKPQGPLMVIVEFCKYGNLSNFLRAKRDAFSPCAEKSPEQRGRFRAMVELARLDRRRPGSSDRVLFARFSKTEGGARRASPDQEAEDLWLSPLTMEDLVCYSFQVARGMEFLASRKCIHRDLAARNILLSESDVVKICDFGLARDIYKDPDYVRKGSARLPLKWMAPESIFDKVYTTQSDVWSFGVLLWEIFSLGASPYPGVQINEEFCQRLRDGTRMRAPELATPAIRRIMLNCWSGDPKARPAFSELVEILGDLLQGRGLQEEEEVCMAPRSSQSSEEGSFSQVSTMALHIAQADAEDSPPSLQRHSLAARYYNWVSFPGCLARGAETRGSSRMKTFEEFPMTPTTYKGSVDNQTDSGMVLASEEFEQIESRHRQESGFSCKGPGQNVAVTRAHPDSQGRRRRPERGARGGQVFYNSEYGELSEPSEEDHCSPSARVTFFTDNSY

[6] = target: CLK2 (human) (UniProt P49760)
[7] = target: BLK (human) (UniProt P51451)
[8] = target: IRAK1 (human) (UniProt P51617)
[9] = target: PAK2 (human) (UniProt Q13177)
[10] = target: EPHB2 (human) (UniProt P29323)
[11] = target: DYRK1A (human) (UniProt Q13627)
[12] = target: CLK3 (human) (UniProt P49761)
[13] = target: AURKA (human) (UniProt O14965)
[14] = target: CAMK1 (human) (UniProt Q14012)
Sequence of CAMK1 (human) (Q14012 whole entry, looked up): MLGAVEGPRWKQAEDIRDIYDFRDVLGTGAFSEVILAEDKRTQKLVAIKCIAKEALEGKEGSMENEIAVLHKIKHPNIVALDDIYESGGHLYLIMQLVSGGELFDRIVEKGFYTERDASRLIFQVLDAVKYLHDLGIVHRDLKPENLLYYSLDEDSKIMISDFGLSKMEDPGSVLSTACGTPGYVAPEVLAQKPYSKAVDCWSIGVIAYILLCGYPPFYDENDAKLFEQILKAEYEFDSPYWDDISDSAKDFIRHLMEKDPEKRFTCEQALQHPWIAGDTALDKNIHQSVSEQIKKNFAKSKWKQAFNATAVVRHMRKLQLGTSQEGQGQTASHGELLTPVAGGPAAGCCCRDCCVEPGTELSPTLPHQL

[15] = target: NEK7 (human) (UniProt Q8TDX7)
[16] = target: FER (human) (UniProt P16591)
[17] = target: STK4 (human) (UniProt Q13043)
[18] = target: PIM2 (human) (UniProt Q9P1W9)
[19] = target: LYN (human) (UniProt P07948)
Sequence of LYN (human) (P07948 whole entry, looked up): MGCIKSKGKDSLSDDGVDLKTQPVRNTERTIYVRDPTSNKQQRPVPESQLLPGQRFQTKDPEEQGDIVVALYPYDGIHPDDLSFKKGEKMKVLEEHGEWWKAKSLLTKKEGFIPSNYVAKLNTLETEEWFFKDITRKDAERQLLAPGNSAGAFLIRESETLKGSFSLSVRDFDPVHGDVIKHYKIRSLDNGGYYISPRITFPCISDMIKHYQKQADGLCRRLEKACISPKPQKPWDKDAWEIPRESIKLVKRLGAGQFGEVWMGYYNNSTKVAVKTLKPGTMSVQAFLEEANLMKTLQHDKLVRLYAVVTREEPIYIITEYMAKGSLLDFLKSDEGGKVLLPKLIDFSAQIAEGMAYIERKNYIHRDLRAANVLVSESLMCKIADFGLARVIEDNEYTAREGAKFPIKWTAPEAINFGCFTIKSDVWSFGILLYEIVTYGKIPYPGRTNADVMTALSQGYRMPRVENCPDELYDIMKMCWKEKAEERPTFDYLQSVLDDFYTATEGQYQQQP

[20] = target: BTK (human) (UniProt Q06187)
[21] = target: IKBKE (human) (UniProt Q14164)
[22] = target: TSSK2 (human) (UniProt Q96PF2)
Sequence of TSSK2 (human) (Q96PF2 whole entry, looked up): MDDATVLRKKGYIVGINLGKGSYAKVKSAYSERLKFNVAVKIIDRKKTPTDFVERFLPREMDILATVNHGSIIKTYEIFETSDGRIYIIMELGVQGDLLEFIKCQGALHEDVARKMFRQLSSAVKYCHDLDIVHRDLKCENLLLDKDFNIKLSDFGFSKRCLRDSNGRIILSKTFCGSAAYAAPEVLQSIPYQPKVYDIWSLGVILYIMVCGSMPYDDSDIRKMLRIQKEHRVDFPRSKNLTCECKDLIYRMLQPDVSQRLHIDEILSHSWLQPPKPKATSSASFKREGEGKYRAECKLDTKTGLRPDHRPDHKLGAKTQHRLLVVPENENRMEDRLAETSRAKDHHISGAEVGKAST

[23] = target: PRKCE (human) (UniProt Q02156)
[24] = target: WNK3 (human) (UniProt Q9BYP7)
[25] = target: KIT (human) (UniProt P10721)
[26] = target: CDC42BPB (human) (UniProt Q9Y5S2)
[27] = target: CDK6 (human) (UniProt Q00534)
[28] = target: MUSK (human) (UniProt O15146)
Sequence of MUSK (human) (O15146 whole entry, looked up): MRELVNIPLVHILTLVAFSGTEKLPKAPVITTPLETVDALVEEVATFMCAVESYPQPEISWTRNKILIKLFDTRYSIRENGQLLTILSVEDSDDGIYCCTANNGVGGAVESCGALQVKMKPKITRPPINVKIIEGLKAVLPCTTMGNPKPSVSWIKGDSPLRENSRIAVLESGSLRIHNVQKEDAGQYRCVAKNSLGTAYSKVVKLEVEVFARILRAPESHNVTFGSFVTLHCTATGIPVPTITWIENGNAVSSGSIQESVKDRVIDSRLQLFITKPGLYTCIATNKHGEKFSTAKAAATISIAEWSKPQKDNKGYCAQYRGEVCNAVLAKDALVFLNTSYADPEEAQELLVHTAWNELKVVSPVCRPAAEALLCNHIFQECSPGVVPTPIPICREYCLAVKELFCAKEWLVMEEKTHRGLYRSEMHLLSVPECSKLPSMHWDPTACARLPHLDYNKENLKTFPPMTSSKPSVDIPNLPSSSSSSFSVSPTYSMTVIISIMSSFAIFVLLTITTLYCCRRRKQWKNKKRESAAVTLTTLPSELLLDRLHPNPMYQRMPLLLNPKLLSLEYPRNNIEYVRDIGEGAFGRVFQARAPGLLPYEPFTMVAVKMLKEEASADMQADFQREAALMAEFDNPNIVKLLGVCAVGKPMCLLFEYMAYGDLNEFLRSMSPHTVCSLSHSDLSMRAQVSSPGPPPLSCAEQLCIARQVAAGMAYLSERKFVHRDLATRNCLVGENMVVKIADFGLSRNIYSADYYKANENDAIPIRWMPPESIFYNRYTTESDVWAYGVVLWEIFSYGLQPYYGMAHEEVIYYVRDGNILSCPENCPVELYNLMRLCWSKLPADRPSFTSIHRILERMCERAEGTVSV

[29] = target: MAPK1 (human) (UniProt P28482)
Sequence of MAPK1 (human) (P28482 whole entry, looked up): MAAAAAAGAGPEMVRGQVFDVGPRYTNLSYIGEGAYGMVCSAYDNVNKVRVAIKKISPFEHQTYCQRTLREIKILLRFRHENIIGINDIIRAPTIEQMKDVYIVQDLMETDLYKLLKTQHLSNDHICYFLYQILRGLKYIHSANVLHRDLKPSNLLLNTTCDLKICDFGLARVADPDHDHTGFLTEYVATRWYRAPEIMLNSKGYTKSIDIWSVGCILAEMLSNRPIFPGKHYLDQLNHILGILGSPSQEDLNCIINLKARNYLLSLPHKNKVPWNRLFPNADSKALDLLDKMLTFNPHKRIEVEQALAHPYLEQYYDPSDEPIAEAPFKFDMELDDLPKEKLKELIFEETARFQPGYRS

[30] = target: STK24 (human) (UniProt Q9Y6E0)
[31] = target: MAPK12 (human) (UniProt P53778)
[32] = target: PHKG1 (human) (UniProt Q16816)
[33] = target: PRKCH (human) (UniProt P24723)
Sequence of PRKCH (human) (P24723 whole entry, looked up): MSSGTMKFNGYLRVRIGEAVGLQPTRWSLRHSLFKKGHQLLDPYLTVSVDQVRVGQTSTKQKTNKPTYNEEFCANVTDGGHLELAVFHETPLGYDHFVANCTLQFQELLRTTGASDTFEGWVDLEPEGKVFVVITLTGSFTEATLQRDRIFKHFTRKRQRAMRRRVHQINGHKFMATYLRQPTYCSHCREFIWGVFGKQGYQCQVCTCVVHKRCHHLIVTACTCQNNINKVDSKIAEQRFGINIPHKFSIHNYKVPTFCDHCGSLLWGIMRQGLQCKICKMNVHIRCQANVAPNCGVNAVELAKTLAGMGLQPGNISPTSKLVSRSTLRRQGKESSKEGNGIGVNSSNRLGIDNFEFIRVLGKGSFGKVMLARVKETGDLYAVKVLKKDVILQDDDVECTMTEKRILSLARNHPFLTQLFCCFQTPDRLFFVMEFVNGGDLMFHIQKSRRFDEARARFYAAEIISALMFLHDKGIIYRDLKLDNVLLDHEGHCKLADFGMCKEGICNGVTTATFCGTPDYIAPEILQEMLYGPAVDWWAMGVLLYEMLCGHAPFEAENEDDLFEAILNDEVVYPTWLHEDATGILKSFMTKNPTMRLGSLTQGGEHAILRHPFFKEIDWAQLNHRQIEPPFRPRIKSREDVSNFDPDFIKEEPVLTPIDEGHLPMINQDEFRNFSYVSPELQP

[34] = target: PAK6 (human) (UniProt Q9NQU5)

- inhibition ([1]; compound 0.02 µM): -3.8%
- inhibition ([1]; compound 0.2 µM): -3.9%
- inhibition ([2]; compound 0.02 µM): 8.9%
- inhibition ([2]; compound 0.2 µM): -13.6%
- inhibition ([3]; compound 0.02 µM): 12%
- inhibition ([3]; compound 0.2 µM): 27.4%
- inhibition ([4]; compound 0.02 µM): -2.9%
- inhibition ([4]; compound 0.2 µM): -3.4%
- inhibition ([5]; compound 0.02 µM): 73.8%
- inhibition ([5]; compound 0.2 µM): 97%
- inhibition ([6]; compound 0.02 µM): 0.3%
- inhibition ([6]; compound 0.2 µM): 1.1%
- inhibition ([7]; compound 0.02 µM): 13.8%
- inhibition ([7]; compound 0.2 µM): 36.1%
- inhibition ([8]; compound 0.02 µM): -19.1%
- inhibition ([8]; compound 0.2 µM): -7.5%
- inhibition ([9]; compound 0.02 µM): -4.1%
- inhibition ([9]; compound 0.2 µM): 3.5%
- inhibition ([10]; compound 0.02 µM): -4.3%
- inhibition ([10]; compound 0.2 µM): 8.7%
- inhibition ([11]; compound 0.02 µM): 10%
- inhibition ([11]; compound 0.2 µM): -4%
- inhibition ([12]; compound 0.02 µM): 11.9%
- inhibition ([12]; compound 0.2 µM): -4.2%
- inhibition ([13]; compound 0.02 µM): 3.3%
- inhibition ([13]; compound 0.2 µM): 4.9%
- inhibition ([14]; compound 0.02 µM): -3.1%
- inhibition ([14]; compound 0.2 µM): -3.1%
- inhibition ([15]; compound 0.02 µM): -3.6%
- inhibition ([15]; compound 0.2 µM): -4%
- inhibition ([16]; compound 0.02 µM): 8.7%
- inhibition ([16]; compound 0.2 µM): 11.2%
- inhibition ([17]; compound 0.02 µM): -4.5%
- inhibition ([17]; compound 0.2 µM): 9%
- inhibition ([18]; compound 0.02 µM): 6.1%
- inhibition ([18]; compound 0.2 µM): 8.8%
- inhibition ([19]; compound 0.02 µM): 13.8% and 15.6%
- inhibition ([19]; compound 0.2 µM): 53.8% and 53.9%
- inhibition ([20]; compound 0.02 µM): 3.4%
- inhibition ([20]; compound 0.2 µM): 10.1%
- inhibition ([21]; compound 0.02 µM): -6.2%
- inhibition ([21]; compound 0.2 µM): -5.1%
- inhibition ([22]; compound 0.02 µM): -4.1%
- inhibition ([22]; compound 0.2 µM): -3.4%
- inhibition ([23]; compound 0.02 µM): 7.2%
- inhibition ([23]; compound 0.2 µM): -3%
- inhibition ([24]; compound 0.02 µM): 0.8%
- inhibition ([24]; compound 0.2 µM): -1.1%
- inhibition ([25]; compound 0.02 µM): 64.1%
- inhibition ([25]; compound 0.2 µM): 71.4%
- inhibition ([26]; compound 0.02 µM): -8.9%
- inhibition ([26]; compound 0.2 µM): 4.2%
- inhibition ([27]; compound 0.02 µM): 11.4%
- inhibition ([27]; compound 0.2 µM): 4.1%
- inhibition ([28]; compound 0.02 µM): -4.8%
- inhibition ([28]; compound 0.2 µM): -1.6%
- inhibition ([29]; compound 0.02 µM): -6.5%
- inhibition ([29]; compound 0.2 µM): -9%
- inhibition ([30]; compound 0.02 µM): 2%
- inhibition ([30]; compound 0.2 µM): 12.8%
- inhibition ([31]; compound 0.02 µM): -4.8%
- inhibition ([31]; compound 0.2 µM): -0.1%
- inhibition ([32]; compound 0.02 µM): -5.1%
- inhibition ([32]; compound 0.2 µM): -3.5%
- inhibition ([33]; compound 0.02 µM): 6%
- inhibition ([33]; compound 0.2 µM): 4.7%
- inhibition ([34]; compound 0.02 µM): -2.2%
- inhibition ([34]; compound 0.2 µM): -4.9%
Structure (SMILES): COc1cc2c(Oc3ccc4[nH]c(C)cc4c3F)ncnc2cc1OCCCN1CCCC1

- inhibition ([1]; compound 0.2 µM): -2.5%
- inhibition ([1]; compound 4.0 µM): 8.9%
- inhibition ([2]; compound 0.2 µM): 95.6%
- inhibition ([2]; compound 4.0 µM): 101%
- inhibition ([3]; compound 0.2 µM): 29.7%
- inhibition ([4]; compound 0.2 µM): -3.4%
- inhibition ([4]; compound 4.0 µM): -4.3%
- inhibition ([5]; compound 0.2 µM): 88.2%
- inhibition ([5]; compound 4.0 µM): 101%
- inhibition ([6]; compound 0.2 µM): 78.3%
- inhibition ([6]; compound 4.0 µM): 97.2%
- inhibition ([7]; compound 0.2 µM): 79.2%
- inhibition ([7]; compound 4.0 µM): 101%
- inhibition ([8]; compound 0.2 µM): 68.5%
- inhibition ([8]; compound 4.0 µM): 84%
- inhibition ([9]; compound 0.2 µM): 1.8%
- inhibition ([9]; compound 4.0 µM): 7.7%
- inhibition ([10]; compound 0.2 µM): 22.2%
- inhibition ([10]; compound 4.0 µM): 79.1%
- inhibition ([11]; compound 0.2 µM): 23%
- inhibition ([11]; compound 4.0 µM): 82.1%
- inhibition ([12]; compound 0.2 µM): 9.2%
- inhibition ([12]; compound 4.0 µM): 37%
- inhibition ([13]; compound 0.2 µM): 31.1%
- inhibition ([13]; compound 4.0 µM): 87.3%
- inhibition ([14]; compound 0.2 µM): 7.3%
- inhibition ([14]; compound 4.0 µM): 61.2%
- inhibition ([15]; compound 0.2 µM): -1.4%
- inhibition ([15]; compound 4.0 µM): -5.6%
- inhibition ([16]; compound 0.2 µM): 78.8%
- inhibition ([16]; compound 4.0 µM): 102%
- inhibition ([17]; compound 0.2 µM): 92.8%
- inhibition ([17]; compound 4.0 µM): 103%
- inhibition ([18]; compound 0.2 µM): 2.5%
- inhibition ([18]; compound 4.0 µM): 12.1%
- inhibition ([19]; compound 0.2 µM): 67.3% and 70.3%
- inhibition ([19]; compound 4.0 µM): 98.3% and 99.7%
- inhibition ([20]; compound 0.2 µM): 2.7%
- inhibition ([20]; compound 4.0 µM): 51.2%
- inhibition ([21]; compound 0.2 µM): 11.9%
- inhibition ([21]; compound 4.0 µM): 71.8%
- inhibition ([22]; compound 0.2 µM): -0.6%
- inhibition ([22]; compound 4.0 µM): 35.3%
- inhibition ([23]; compound 0.2 µM): 4.4%
- inhibition ([23]; compound 4.0 µM): 11%
- inhibition ([24]; compound 0.2 µM): 1.8%
- inhibition ([24]; compound 4.0 µM): 2.4%
- inhibition ([25]; compound 0.2 µM): 76.7%
- inhibition ([25]; compound 4.0 µM): 100%
- inhibition ([26]; compound 0.2 µM): -0.5%
- inhibition ([26]; compound 4.0 µM): 14.2%
- inhibition ([27]; compound 0.2 µM): 23.8%
- inhibition ([27]; compound 4.0 µM): 89.2%
- inhibition ([28]; compound 0.2 µM): 94.8%
- inhibition ([28]; compound 4.0 µM): 101%
- inhibition ([29]; compound 0.2 µM): -7.5%
- inhibition ([29]; compound 4.0 µM): -1.7%
- inhibition ([30]; compound 0.2 µM): 47.8%
- inhibition ([30]; compound 4.0 µM): 95.7%
- inhibition ([31]; compound 0.2 µM): -4.2%
- inhibition ([31]; compound 4.0 µM): -6.2%
- inhibition ([32]; compound 0.2 µM): 91.8%
- inhibition ([32]; compound 4.0 µM): 96.9%
- inhibition ([33]; compound 0.2 µM): 2.3%
- inhibition ([33]; compound 4.0 µM): 20.7%
- inhibition ([34]; compound 0.2 µM): 6%
- inhibition ([34]; compound 4.0 µM): 22.2%
Structure (SMILES): CCN(CC)CCNC(=O)c1c(C)[nH]c(/C=C2\C(=O)Nc3ccc(F)cc32)c1C
